In patent US7632841B2, “2-N{5-[[4-[2-(methyl-2-pyridinylamino) ethoxy] phenyl]methyl]-2,4-thiazolidinedione} butanedioic acid, methods of preparation and compositions with rosiglitazone maleate” (Teva Pharmaceutical Industries, Ltd., priority 2006, dated 2009):

Assay: Compatibility study: rosiglitazone maleate mixed with excipients/metformin and water, formation of Compound 1
Type: physicochemical
Conditions: rosiglitazone maleate mixed with the named excipient in proportions of 500 mg/4 mg tablets, 0.5 ml water added, 65° C. for 4 days
Method: Rosiglitazone maleate was mixed with various excipients and with metformin in the same proportions as present in the 500 mg/4 mg (base strength) metformin/rosiglitazone maleate tablets. 0.5 ml of water was added to each mixture, and the samples were kept at 65° C. for 4 days. The amount of Compound 1 was determined in each of the samples using the method in Example 4. The peaks were measured and the area percent (area of Compound 1 peak/area of all rosiglitazone related peaks) of the Compound 1 peak is listed below.
Placebo mix A refers to a mixture of excipients as indicated in Example 5a, with the exception of rosiglitazone maleate.
Placebo mix B refers to a mixture of excipients as indicated in Example 5b, with the exception of rosiglitazone maleate.

Area Percent of Compound 1 peak (area of Compound 1 peak/area of all rosiglitazone related peaks): 0.9 Area Percent
SMILES: CN(CCOc1ccc(CC2SC(=O)NC2=O)cc1)c1ccccn1.O=C(O)/C=C\C(=O)O (racemic) [Rosiglitazone Maleate (alone), (±)-5-[[4-[2-(methyl-2-pyridinylamino)ethoxy]phenyl]methyl]-2,4-thiazolidinedione, (Z)-2-butenedioate (1:1)]
